In US20140190599A1 (priority 2004, published 2014):

System: rat
Details: in vivo

| SMILES | LD50rat |
| --- | --- |
| NNCCO.O=[N+]([O-])O [HEHN, 2-hydroxyethyl hydrazinium nitrate] | 325 mg/kg |
| NN [Hydrazine] | 60 mg/kg |
